# Measurements as given in publication PMC10307885, “A Phase 1/2 trial of SRA737 (a Chk1 inhibitor) administered orally in patients with advanced cancer” (British Journal of Cancer, 2023).
# Tested on: patients with advanced solid tumours
# Experiment: Phase 1/2 dose-escalation/expansion study: safety, TEAEs (NCI CTCAE v4.03), DLT, MTD, RP2D
# Type: in vivo
# Source text: The objectives of this first-in-human, Phase 1/2, open-label, dose-escalation study of SRA737 as a single agent were to establish the safety profile, define the maximum tolerated dose (MTD) and the recommended Phase 2 dose (RP2D) and schedule, and to evaluate preliminary efficacy in prospectively selected genetically defined patients enrolled in indication-specific expansion cohorts. Secondary objectives included defining the pharmacokinetic (PK) profile of SRA737.
# The study used an accelerated titration design in dose escalation beginning with single subject dose-level cohorts. Doubling of the SRA737 dose was permitted in the subsequent cohort if a dose level was determined to be safe by the cohort review committee consisting of the lead investigator, study investigators representing the site(s) currently enrolling patients, and representatives of the study sponsor. In the event of any SRA737-related adverse event Grade 2 or greater toxicity during Cycle 1, the cohort was to be expanded to 3 to 6 subjects. Thereafter the study followed a rolling 6 design wherein once the first subject completed the 7-day observation period following the first dose of SRA737, subsequent subjects in that cohort started treatment. […] Enrolment of expansion cohorts at the highest dose level determined to be safe and tolerable was initiated prior to the completion of dose escalation and determination of MTD or RP2D.
# A single dose of SRA737 was given at one visit on Day −7 to Day −4 (prior to the start of Cycle 1) for PK assessments. SRA737 was then administered orally on a continuous daily dosing schedule in 28-day cycles. An accelerated titration design was used with single-patient dose-escalation cohorts starting with 20 mg SRA737 administered once daily (QD) in the first cohort, with dose doubling in subsequent single-patient cohorts. If a patient had SRA737-related Grade 2 toxicity in a dose level cohort during Cycle 1, that cohort was expanded to 3 to 6 patients, and subsequent cohorts followed a rolling six design.
# Patients were assessed for DLT from the first SRA737 dose (Day −7 to Day −4) until the end of Cycle 1 (up to 35 days).
# Expansion cohorts including up to 20 patients with one of the 6 specified indication-specific tumour types, were treated at SRA737 doses selected by the cohort review committee based on all available safety and PK data; expansion doses were at or below the maximum tolerated dose (MTD) from the dose-escalation phase. Patients could continue treatment until disease progression or discontinuation from study due to unacceptable toxicity, investigator/sponsor decision, or withdrawal of consent.
# Safety assessments including adverse events, laboratory parameters, electrocardiograms (ECGs), and echocardiograms were conducted throughout treatment and until 30 days after the last study treatment or initiation of new anticancer treatment.
# The Safety Evaluable population included all patients who received at least one dose of SRA737.
# The DLT window is defined from the first dose (Day -7 to Day -4) until the end of Cycle 1 (up to 35 days).
# A DLT is defined as any highly probably or probably SRA737-related event of: […]
# [1] = irrespective of SRA737 dose level, any grade
smiles,measurement,setting,value
"N#Cc1cnc(Nc2cc(NC[C@H]3CNCCO3)c(C(F)(F)F)cn2)cn1 [SRA737, (R)-5-((4-((morpholin-2-ylmethyl)amino)-5-(trifluoromethyl)pyridin-2-yl)amino)pyr azine-2-carbonitrile]",SRA737-related TEAE of Grade 3 or higher: Diarrhoea,SRA737 dose > 800 mg (N = 49),1 (2.0) n (%)
same,SRA737-related TEAE of Grade 3 or higher: Dyspnoea,SRA737 dose > 800 mg (N = 49),0 n (%)
same,SRA737-related TEAE of Grade 3 or higher: Fatigue,SRA737 dose > 800 mg (N = 49),2 (4.1) n (%)
same,SRA737-related TEAE of Grade 3 or higher: Lymphocyte count decreased,SRA737 dose > 800 mg (N = 49),0 n (%)
same,SRA737-related TEAE of Grade 3 or higher: Neutropenia,SRA737 dose > 800 mg (N = 49),5 (10.2) n (%)
same,SRA737-related TEAE of Grade 3 or higher: Rash,SRA737 dose > 800 mg (N = 49),1 (2.0) n (%)
same,SRA737-related TEAE of Grade 3 or higher: Rash maculopapular,SRA737 dose > 800 mg (N = 49),2 (4.1) n (%)
same,SRA737-related TEAE of Grade 3 or higher: Thrombocytopenia,SRA737 dose > 800 mg (N = 49),1 (2.0) n (%)
same,SRA737-related TEAE of any grade: Anaemia,SRA737 dose > 800 mg (N = 49),11 (22.4) n (%)
same,SRA737-related TEAE of any grade: Decreased Appetite,SRA737 dose > 800 mg (N = 49),7 (14.3) n (%)
same,SRA737-related TEAE of any grade: Diarrhoea,SRA737 dose > 800 mg (N = 49),34 (69.4) n (%)
same,SRA737-related TEAE of any grade: Fatigue,SRA737 dose > 800 mg (N = 49),27 (55.1) n (%)
same,SRA737-related TEAE of any grade: Nausea,SRA737 dose > 800 mg (N = 49),32 (65.3) n (%)
same,SRA737-related TEAE of any grade: Neutropenia,SRA737 dose > 800 mg (N = 49),7 (14.3) n (%)
same,SRA737-related TEAE of any grade: Vomiting,SRA737 dose > 800 mg (N = 49),28 (57.1) n (%)
same,Any SRA737-related Grade ≥3 treatment-emergent adverse event (TEAE),SRA737 dose ≤ 800 mg (N = 58),14 (24.1) n (%)
same,"Any SRA737-related treatment-emergent adverse event (TEAE), any grade",SRA737 dose ≤ 800 mg (N = 58),51 (87.9) n (%)
same,SRA737-related TEAE of Grade 3 or higher: Aspartate aminotransferase increased,SRA737 dose ≤ 800 mg (N = 58),2 (3.4) n (%)
same,SRA737-related TEAE of Grade 3 or higher: Diarrhoea,SRA737 dose ≤ 800 mg (N = 58),1 (1.7) n (%)
same,SRA737-related TEAE of Grade 3 or higher: Dyspnoea,SRA737 dose ≤ 800 mg (N = 58),2 (3.4) n (%)
same,SRA737-related TEAE of Grade 3 or higher: Fatigue,SRA737 dose ≤ 800 mg (N = 58),0 n (%)
same,SRA737-related TEAE of Grade 3 or higher: Lymphocyte count decreased,SRA737 dose ≤ 800 mg (N = 58),3 (5.2) n (%)
same,SRA737-related TEAE of Grade 3 or higher: Neutropenia,SRA737 dose ≤ 800 mg (N = 58),4 (6.9) n (%)
same,SRA737-related TEAE of Grade 3 or higher: Rash,SRA737 dose ≤ 800 mg (N = 58),2 (3.4) n (%)
same,SRA737-related TEAE of Grade 3 or higher: Rash maculopapular,SRA737 dose ≤ 800 mg (N = 58),1 (1.7) n (%)
same,SRA737-related TEAE of Grade 3 or higher: Thrombocytopenia,SRA737 dose ≤ 800 mg (N = 58),2 (3.4) n (%)
same,SRA737-related TEAE of any grade: Anaemia,SRA737 dose ≤ 800 mg (N = 58),5 (8.6) n (%)
same,SRA737-related TEAE of any grade: Decreased Appetite,SRA737 dose ≤ 800 mg (N = 58),12 (20.7) n (%)
same,SRA737-related TEAE of any grade: Diarrhoea,SRA737 dose ≤ 800 mg (N = 58),33 (56.9) n (%)
same,SRA737-related TEAE of any grade: Fatigue,SRA737 dose ≤ 800 mg (N = 58),14 (24.1) n (%)
same,SRA737-related TEAE of any grade: Nausea,SRA737 dose ≤ 800 mg (N = 58),32 (55.2) n (%)
same,SRA737-related TEAE of any grade: Neutropenia,SRA737 dose ≤ 800 mg (N = 58),10 (17.2) n (%)
same,SRA737-related TEAE of any grade: Vomiting,SRA737 dose ≤ 800 mg (N = 58),21 (36.2) n (%)
same,Grade 3 or higher neutropenia rate,"current study, overall",8%
same,"Dose-limiting toxicity, events included",daily doses of 1000 and 1300 mg QD,"gastrointestinal events, neutropenia and thrombocytopenia"
same,patients who tolerated the dose but required anti-emetic medication and/or night-time dosing,"human, in vivo",7 patients
same,Fatal adverse events attributed to SRA737,in vivo,none
same,Fatal adverse events reported,in vivo,ten
same,TEAE attributed to SRA737: anaemia,[1],15%
same,TEAE attributed to SRA737: decreased appetite,[1],18%
same,TEAE attributed to SRA737: diarrhoea,[1],63%
same,TEAE attributed to SRA737: fatigue,[1],38%
same,TEAE attributed to SRA737: nausea,[1],60%
same,TEAE attributed to SRA737: neutropenia,[1],16%
same,TEAE attributed to SRA737: vomiting,[1],46%
same,recommended Phase 2 dose (RP2D),oral monotherapy,800 mg QD
same,maximum tolerated dose (MTD),"oral monotherapy, continuous daily dosing, 28-day cycles",1000 mg QD
same,"GI events (diarrhoea, nausea, vomiting) reported at Grade 3 or higher severity",patients treated at 800 mg QD or higher,less than 5 % of patients
